# Read-outs that look alike come from different tables or passages of the source.
# Assays:
# Type in all cases: cell-based, Erwinia chrysanthemii
# [1] = target: T1, F16′W ELIC (Dickeya chrysanthemi, UniProt P0C7B7, F246W); assay: Inhibition of GABA-elicited currents of F16′W ELIC in Xenopus oocytes
# T1 construct: expressed in transfected cells; host or cells: Xenopus laevis oocytes (cRNA injection)
# [2] = target: T2, T6′S ELIC (Dickeya chrysanthemi, UniProt P0C7B7, T236S); assay: Inhibition of GABA-elicited currents of T6′S ELIC in Xenopus oocytes
# T2 construct: expressed in transfected cells; host or cells: Xenopus laevis oocytes (cRNA injection)
# [3] = target: T3, F16′S ELIC (Dickeya chrysanthemi, UniProt P0C7B7, F246S); assay: Inhibition of GABA-elicited currents of F16′S ELIC in Xenopus oocytes
# T3 construct: expressed in transfected cells; host or cells: Xenopus laevis oocytes (cRNA injection)
# [4] = target: T4, F16′E ELIC (Dickeya chrysanthemi, UniProt P0C7B7, F246E); assay: Inhibition of GABA-elicited currents of F16′E ELIC in Xenopus oocytes
# T4 construct: expressed in transfected cells; host or cells: Xenopus laevis oocytes (cRNA injection)
# [5] = target: T5, T6′S/F16′S ELIC (Dickeya chrysanthemi, UniProt P0C7B7, F246S/T236S); assay: Inhibition of GABA-elicited currents of T6′S/F16′S ELIC in Xenopus oocytes; details: inhibition measured at the GABA EC50
# T5 construct: expressed in transfected cells; host or cells: Xenopus laevis oocytes injected with cRNA transcribed from pGEMHE
# T5 sequence (P0C7B7 1-321 T236S/F246S): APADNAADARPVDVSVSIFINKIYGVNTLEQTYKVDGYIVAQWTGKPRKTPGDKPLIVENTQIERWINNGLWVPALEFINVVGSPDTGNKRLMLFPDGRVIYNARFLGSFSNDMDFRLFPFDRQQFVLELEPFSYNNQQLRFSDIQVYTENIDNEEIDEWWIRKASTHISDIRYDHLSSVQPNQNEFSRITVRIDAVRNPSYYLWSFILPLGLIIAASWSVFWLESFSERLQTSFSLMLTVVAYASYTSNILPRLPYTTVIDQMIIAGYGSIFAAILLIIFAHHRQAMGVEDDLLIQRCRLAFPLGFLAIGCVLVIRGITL
# [6] = target: T6, F16′T ELIC (Dickeya chrysanthemi, UniProt P0C7B7, F246T); assay: Inhibition of GABA-elicited currents of F16′T ELIC in Xenopus oocytes
# T6 construct: expressed in transfected cells; host or cells: Xenopus laevis oocytes (cRNA injection)
# [7] = target: T7, T6′A ELIC (Dickeya chrysanthemi, UniProt P0C7B7, T236A); assay: Inhibition of GABA-elicited currents of T6′A ELIC in Xenopus oocytes
# T7 construct: expressed in transfected cells; host or cells: Xenopus laevis oocytes (cRNA injection)
# Protocol: (§1) Xenopus laevis oocyte-positive females were purchased from NASCO (Fort Atkinson, WI) and maintained according to standard methods. Harvested stage V and VI Xenopus oocytes were washed in four changes of Ca^2+-free ND96 [96 mM NaCl, 2 mM KCl, 1 mM MgCl2, and 5 mM HEPES (pH 7.5)], defolliculated in 1.5 mg mL^–1 collagenase type 1A for approximately 2 h, washed again in four changes of ND96, and stored in ND96 at 16 °C containing 2.5 mM sodium pyruvate, […] gentamycin, and 0.7 mM theophylline.
# (§2) ELIC (GenBank accession number ADN00343.1) was kindly provided by C. Ulens. For expression in Xenopus oocytes, it was cloned into pGEMHE with the signal sequence of the human α7 nACh receptor. […] Stage V and VI oocytes were injected with 20 ng of cRNA, and currents were recorded 1–3 days postinjection.
# (§3) Using two-electrode voltage clamp, Xenopus oocytes were clamped at −60 mV using an OC-725 amplifier (Warner Instruments, Hamden, CT), Digidata 1322A, and the Strathclyde Electrophysiology Software Package (Department of Physiology and Pharmacology, University of Strathclyde, Glasgow, U.K.). Currents were recorded at 5 kHz and filtered at a frequency of 1 kHz. […] Inhibition by test compounds was measured at the GABA EC50 for each mutant. […]
# [8] = target: T8, F16′A ELIC (Dickeya chrysanthemi, UniProt P0C7B7, F246A); assay: Inhibition of GABA-elicited currents of F16′A ELIC in Xenopus oocytes; details: inhibition measured at the GABA EC50
# T8 construct: expressed in transfected cells; host or cells: Xenopus laevis oocytes (cRNA injection)
# [9] = target: T9, F16′D ELIC (Dickeya chrysanthemi, UniProt P0C7B7, F246D); assay: Inhibition of GABA-elicited currents of F16′D ELIC in Xenopus oocytes
# T9 construct: expressed in transfected cells; host or cells: Xenopus laevis oocytes (cRNA injection)
# Protocol: as §1, §2, §3
# [10] = target: T10, Q2′N ELIC (Dickeya chrysanthemi, UniProt P0C7B7, Q232N); assay: Inhibition of GABA-elicited currents of Q2′N ELIC in Xenopus oocytes
# T10 construct: expressed in transfected cells; host or cells: Xenopus laevis oocytes (cRNA injection)
# [11] = target: T11, F16′Y ELIC (Dickeya chrysanthemi, UniProt P0C7B7, F246Y); assay: GABA activation of F16′Y ELIC, two-electrode voltage clamp in Xenopus oocytes
# T11 construct: expressed in transfected cells; host or cells: Xenopus laevis oocytes (cRNA injection)
# [12] = target: T9, F16′D ELIC; assay: GABA activation of F16′D ELIC, two-electrode voltage clamp in Xenopus oocytes
# [13] = target: T8, F16′A ELIC; assay: GABA activation of F16′A ELIC, two-electrode voltage clamp in Xenopus oocytes
# Protocol: as §1, §2, §3
# [14] = target: T7, T6′A ELIC; assay: GABA activation of T6′A ELIC, two-electrode voltage clamp in Xenopus oocytes
# [15] = target: T12, F16′S/T6′S ELIC (Dickeya chrysanthemi, UniProt P0C7B7, F246S/T236S); assay: GABA activation of F16′S/T6′S ELIC, two-electrode voltage clamp in Xenopus oocytes
# T12 construct: expressed in transfected cells; host or cells: Xenopus laevis oocytes (cRNA injection)
# [16] = target: T1, F16′W ELIC; assay: GABA activation of F16′W ELIC, two-electrode voltage clamp in Xenopus oocytes
# [17] = target: T4, F16′E ELIC; assay: GABA activation of F16′E ELIC, two-electrode voltage clamp in Xenopus oocytes
# Protocol: as §1, §2, §3
# [18] = target: T6, F16′T ELIC; assay: GABA activation of F16′T ELIC, two-electrode voltage clamp in Xenopus oocytes
# [19] = target: T10, Q2′N ELIC; assay: GABA activation of Q2′N ELIC, two-electrode voltage clamp in Xenopus oocytes
# [20] = target: T2, T6′S ELIC; assay: GABA activation of T6′S ELIC, two-electrode voltage clamp in Xenopus oocytes
# [21] = target: T3, F16′S ELIC; assay: GABA activation of F16′S ELIC, two-electrode voltage clamp in Xenopus oocytes
# [22] = target: T13, F16′L ELIC (Dickeya chrysanthemi, UniProt P0C7B7, F246L); assay: GABA activation of F16′L ELIC, two-electrode voltage clamp in Xenopus oocytes
# T13 construct: expressed in transfected cells; host or cells: Xenopus laevis oocytes (cRNA injection)
# Protocol: as §1, §2, §3
# [23] = target: T14, F16′Q ELIC (Dickeya chrysanthemi, UniProt P0C7B7, F246Q); assay: GABA activation of F16′Q ELIC, two-electrode voltage clamp in Xenopus oocytes
# T14 construct: expressed in transfected cells; host or cells: Xenopus laevis oocytes (cRNA injection)
compound,measurement,setting,value
"C=C(C)[C@@H]1[C@H]2OC(=O)[C@@H]1[C@]1(O)C[C@H]3O[C@]34C(=O)O[C@H]2[C@]14C [PXN, Picrotoxinin]",IC50,[1],52 µM
same,IC50,[2],68 µM
same,IC50,[3],4.5 µM
same,IC50,[4],26.9 µM
same,IC50,"[5]; IC50, T6′S/F16′S ELIC",44 µM
same,IC50,[6],7.2 µM
same,IC50,[7],95 µM
same,IC50,"[8]; IC50, F16′A ELIC",16 µM
same,IC50,"[8]; pIC50, F16′A ELIC",16.6 µM
same,IC50,[9],9.4 µM
same,IC50,[10],44 µM
"NCCCC(=O)O [GABA, γ-aminobutyric acid]",EC50,[11],7500 µM
same,EC50,[12],2090 µM
same,EC50,[13],4900 µM
same,EC50,"[14]; GABA EC50, T6′A ELIC",800 µM
same,EC50,"[14]; GABA pEC50, T6′A ELIC",851 µM
same,EC50,[15],6400 µM
same,EC50,[16],2290 µM
same,EC50,"[17]; GABA EC50, F16′E ELIC",26000 µM
same,EC50,"[17]; GABA pEC50, F16′E ELIC",25700 µM
same,EC50,"[18]; GABA EC50, F16′T ELIC",11000 µM
same,EC50,"[18]; GABA pEC50, F16′T ELIC",11500 µM
same,EC50,[19],1820 µM
same,EC50,[20],1780 µM
same,EC50,[21],7100 µM
same,EC50,"[22]; GABA EC50, F16′L ELIC",51000 µM
same,EC50,"[22]; GABA pEC50, F16′L ELIC",51300 µM
same,EC50,[23],7760 µM
CCCC(C(=O)OCCN(CC)CC)(c1ccccc1)c1ccccc1 [proadifen],IC50,"[2]; T6′S ELIC, inhibition measured at the GABA EC50, read-out: pIC50 (converted)",2.57 µM
same,IC50,"[3]; F16′S ELIC, inhibition measured at the GABA EC50, read-out: IC50",5.1 µM
same,IC50,"[5]; T6′S/F16′S ELIC, read-out: IC50",0.9 µM
same,IC50,"[5]; T6′S/F16′S ELIC, read-out: pIC50 (converted)",0.933 µM

# — PMC4312132, “Phenylalanine in the Pore of the Erwinia Ligand-Gated Ion Channel Modulates Picrotoxinin Potency but Not Receptor Function” (Biochemistry, 2014)
